In one data set the test system is CD8 protein release. The data set can be described thus: CD8 protein release into supernatant of stimulated PBL cultures (enzyme immunoassay). Type of data set: cell-based, human. Particulars: stimulated PBL cultures (FIG. 7). The protocol:
(§1) Release of cell surface interleukin-2 receptor (IL-2R) or CD8 antigen from lymphocytes is a correlate of T cell activation (Rubin et al. J. Immunol. 1985, 135, 3172-77; Rubin et al. Fed. proc. 1985 44, 946; Fujimoto, J. et al. J. Exp. Med. 1983, 159, 752-66; Tomkinson, B. et al. 2d Annual Conference on Clinical Immunol. Washington, D.C., Oct. 30, 1987). In some experiments, the level of IL-2R or CD8 protein released into the supernatant of the PBL cultures was assessed by removing aliquots therefrom just prior to pulsing with ^3 H-thymidine. Commercially available enzyme immunoassay kits (CELLFREE™ IL-2R, Cat. No. CK1020, T Cell Sciences, Inc., Cambridge, Mass., or CELL-FREE™ T8/CD8, Cat. No. CK1040, T Cell Sciences) were used to determine the levels of the two analytes.

In data set [1] the test system is interleukin-2 receptor (IL-2R) release. The experiment in a line: IL-2R release into supernatant of stimulated PBL cultures (enzyme immunoassay). Type of data set: cell-based, human. Particulars: stimulated PBL cultures (FIG. 6). The protocol: as §1
In data set [2] the test system is K562 erythromyeloid leukemia cells (NK-sensitive target cells). The data set can be described thus: Inhibition of natural killer activity, 51Cr release cytotoxicity assay. Particulars: effector:target 50:1, 4 h. Type of data set: cell-based. The protocol: (§2) Compounds were tested for their effects on the ability of peripheral blood mononuclear cells to lyse NK-sensitive target cells, K562. NK activity was determined using ^51 Cr-labeled K562 erythromyeloid leukemia cells as targets, and normal peripheral blood mononuclear cells as effector cells, in a four hour cytotoxicity assay. Effector cells were isolated from fresh blood by Ficoll-Hypaque gradient centrifugation, and 100 μl of a 5×10^5 cell/well suspension were added to each well of a V-bottom microtiter plate. The compound 11a was diluted in RPMI 1640 medium containing 10% fetal calf serum and dispensed at 100 μl per well. Target cells (K562) were labeled for 30 minutes with 100 μCi of ^51 Cr, washed thoroughly and dispensed in a 20 μl volume at 10^4 cells/well. […] The microtiter plate was centrifuged at 50×g for 5 minutes and incubated in a humidified chamber with 5% CO2 at 37° C. After 4 hours, 100 μl were removed from each well and the radioactivity was measured with a LKB 1275 gamma counter. The percent specific lysis was calculated as follows:
(§3) % specific lysis=[(EXP-SR)/(TOTAL-B)]×100
(§4) where EXP (experimental value) was obtained using effector and target cells; SR (the spontaneous release) was obtained from target cells incubated with media alone; TOTAL release was obtained by hypotonic lysis in water; and B represents instrumental background. Means were calculated from quadruplicate wells and the standard deviations never exceeded 10%. Viability of the effector cells incubated with the test compound was determined by trypan blue exclusion.

Assay in data set [3]: as above
Particulars: human, k562 cells, read-out: Spont. Release Target Cells Alone (K562). Type of data set: cell-based. The protocol: as §2, §3, §4

The subject of a further data set is C3a production. The data set can be described thus: Inhibition of C3a production in human serum (aggregated IgG, RIA). Type of data set: biochemical. To be noted: human serum, concentration inhibiting C3a production 50% relative to control. The protocol: The ability to inhibit complement was tested by assaying for specific inhibition of C3a and C5a production. For all experiments, a single human serum pool, to be used as a source of complement, was aliquoted and stored frozen at -70° C. Human IgG was heat-aggregated, aliquoted, and stored frozen at -70° C. For each experiment, serum aliquots were equilibrated at 37° C. with varying concentrations of the compounds tested. The classical complement pathway was initiated by the addition of aggregated human IgG. Control samples containing no IgG were always included. After a fixed reaction time of 10 minutes (determined in an earlier time-course study to provide a convenient time interval during which the production of C5a or C3a is nearly complete, i.e., greater than 90%), the levels of the released complement peptides (C5a or C3a) were determined by radioimmunoassay using commercially available radioimmunoassay (RIA) kits (C5a RIA, UpJohn Cat. No. 3250-02; C3a RIA, UpJohn Cat. No. 3245-01; C5a RIA, Amersham Cat. No. RPA.520; C3a RIA, Amersham RPA.518).
Since a competitive immunoassay was used, complement peptide (C5a and C3a) concentrations varied inversely with the counts. The Counts Bound (CB) for a sample was defined as the total counts (in counts per minute, cpm) measured in the pellet minus the counts measured in a nonspecific binding (NSB) control. The NSB control was a sample containing only tracer peptide (^125 I-labelled) and second precipitating antiserum; it contained no C5a- or C3a-specific antiserum.
The y-axis in FIG. 2 represents the fraction inhibition. The fraction inhibition is equal to the Counts Bound (CB) for a "sample," less the CB in the "sample with no added compound," divided by the CB for the "no IgG control" less the CB in the "sample with no added compound." [formula]
FIG. 2 is representative of the data plots obtained from the assays described above.

Data set [4] deals with cell surface IL-2R expression. The data set can be described thus: Inhibition of cell surface IL-2R expression, PHA-stimulated PBL, flow cytometry. Type of data set: cell-based. Particulars: PHA 72 h, total cell count 5000. The protocol:
Compounds were tested for their ability to inhibit T cell activation, as indicated by inhibition of cell-surface IL-2R expression. PBL cultures (1.5 ml; 24-well plates) were stimulated with PHA (1 μg/ml) for 72 hours in the absence or presence of varying amounts of compound 11a. Subsequently, the cells were stained using fluorescein isothiocyanate (FITC)-labeled anti-IL-2R antibody (Act-T-Set IL-2R, Cat. No. AA2009, T Cell Sciences, Inc., Cambridge, Mass.) and analyzed by flow cytometry (Ortho System 30) (Table X).
(A flow cytometer gives signals particle by particle.)

Experimental findings from US5808109A, “Compounds that inhibit complement and/or suppress immune activity” (T Cell Sciences, Inc., priority 1995, dated 1998) are described below.

For `COc1ccc(C(=O)O)c2c1CC1(CCCCC1)O2` [Compound 11a, 7-carboxy-4-methoxyspiro[benzofuran-2(3H)-cyclohexane]], in the data set with CD8 protein release, the CD8 protein release result was “inhibitor”. In data set [1], the IL-2R protein release result is “inhibitor”. For the same molecule, the “% Specific Lysis” value in data set [2] (0.4 mM) is 7%; in data set [2] (0.8 mM) it was 4%; in data set [2] (1.6 mM), 1%; in data set [2] (3.2 mM) it was -1%; in data set [2] (6.4 mM), 18%. Moreover, the % spontaneous 51Cr release of K562 target cells alone at 4 h, 400 µM in data set [3] (0.4 mM) was determined as 5%. For the same molecule, the % spontaneous 51Cr release of K562 target cells alone at 4 h, 800 µM in data set [3] (0.8 mM) is 5%. Besides, the % spontaneous 51Cr release of K562 target cells alone at 4 h, 1600 µM in data set [3] (1.6 mM) amounted to 5%. The % spontaneous 51Cr release of K562 target cells alone at 4 h, 3200 µM in data set [3] (3.2 mM) was found to be 5%. In data set [3] (6.4 mM), the % spontaneous 51Cr release of K562 target cells alone at 4 h, 6400 µM was determined as 23%. Half-maximal inhibition with C3a production (IC50) required 22 mM. Also, the “Number of Cells Positive for IL-2R” value in data set [4] (0.44 nM (so in the source)) is on record as 913; in data set [4] (1.76 nM (so in the source)) it was 225. The “Percentage Positive” value was determined as 18.3 in data set [4] (0.44 nM (so in the source)) and 4.5 in data set [4] (1.76 nM (so in the source)).
